Earlier results in US7449585B2, “Indazol-3-ones and analogues and derivatives thereof which modulate the function of the vanilloid-1 receptor (VR1)” (Merck Sharp & Dohme Ltd., priority 2003, dated 2008).

Target: VR1 (Rattus norvegicus, UniProt O35433)
Conditions: literature (Wahl et al., Mol. Pharmacol, 59:9, 2001)

Sequence of VR1 (O35433 whole entry): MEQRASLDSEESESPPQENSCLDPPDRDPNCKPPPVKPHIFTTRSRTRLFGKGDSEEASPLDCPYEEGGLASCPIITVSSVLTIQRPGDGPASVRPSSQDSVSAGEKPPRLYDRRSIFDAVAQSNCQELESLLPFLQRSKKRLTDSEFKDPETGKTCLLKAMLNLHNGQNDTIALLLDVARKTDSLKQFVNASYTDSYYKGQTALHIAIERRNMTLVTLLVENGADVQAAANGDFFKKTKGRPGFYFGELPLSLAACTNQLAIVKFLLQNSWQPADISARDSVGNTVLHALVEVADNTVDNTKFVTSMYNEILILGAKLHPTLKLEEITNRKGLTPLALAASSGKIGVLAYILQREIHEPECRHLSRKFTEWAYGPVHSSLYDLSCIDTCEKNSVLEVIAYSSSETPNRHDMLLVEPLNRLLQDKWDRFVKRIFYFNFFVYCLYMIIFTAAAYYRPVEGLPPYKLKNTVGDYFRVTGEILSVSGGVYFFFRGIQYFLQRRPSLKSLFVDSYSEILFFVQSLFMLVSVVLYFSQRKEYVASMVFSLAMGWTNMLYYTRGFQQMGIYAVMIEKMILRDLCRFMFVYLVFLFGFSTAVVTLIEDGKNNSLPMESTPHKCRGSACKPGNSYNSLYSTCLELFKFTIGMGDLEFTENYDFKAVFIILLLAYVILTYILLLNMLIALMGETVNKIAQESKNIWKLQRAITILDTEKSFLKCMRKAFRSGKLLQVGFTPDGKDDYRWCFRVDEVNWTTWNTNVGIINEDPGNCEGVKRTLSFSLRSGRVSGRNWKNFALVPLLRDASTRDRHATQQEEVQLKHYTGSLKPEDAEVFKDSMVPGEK

C=C(C)[C@]12C[C@@H](C)[C@@]34O[C@](Cc5ccccc5)(O[C@@H]1[C@@H]3C=C(COC(=O)Cc1cc(I)c(O)c(OC)c1)C[C@]1(O)C(=O)C(C)=C[C@@H]41)O2 [Iodo-resiniferatoxin]
VR1 antagonist potency (in words): nanomolar antagonist
